The source made the active and inactive calls.
Legend:
[1] = biological target: Glyceraldehyde-3-phosphate dehydrogenase (Homo sapiens, UniProt P04406)
[2] = biological target: T1, Replicative DNA helicase DnaB (Mycobacterium tuberculosis, UniProt P9WMR3); experiment: DnaB intein splicing inhibitors, dose response, biochemical, cell-free fluorescence (AID 449749); type: functional
T1 sequence (P9WMR3 whole entry): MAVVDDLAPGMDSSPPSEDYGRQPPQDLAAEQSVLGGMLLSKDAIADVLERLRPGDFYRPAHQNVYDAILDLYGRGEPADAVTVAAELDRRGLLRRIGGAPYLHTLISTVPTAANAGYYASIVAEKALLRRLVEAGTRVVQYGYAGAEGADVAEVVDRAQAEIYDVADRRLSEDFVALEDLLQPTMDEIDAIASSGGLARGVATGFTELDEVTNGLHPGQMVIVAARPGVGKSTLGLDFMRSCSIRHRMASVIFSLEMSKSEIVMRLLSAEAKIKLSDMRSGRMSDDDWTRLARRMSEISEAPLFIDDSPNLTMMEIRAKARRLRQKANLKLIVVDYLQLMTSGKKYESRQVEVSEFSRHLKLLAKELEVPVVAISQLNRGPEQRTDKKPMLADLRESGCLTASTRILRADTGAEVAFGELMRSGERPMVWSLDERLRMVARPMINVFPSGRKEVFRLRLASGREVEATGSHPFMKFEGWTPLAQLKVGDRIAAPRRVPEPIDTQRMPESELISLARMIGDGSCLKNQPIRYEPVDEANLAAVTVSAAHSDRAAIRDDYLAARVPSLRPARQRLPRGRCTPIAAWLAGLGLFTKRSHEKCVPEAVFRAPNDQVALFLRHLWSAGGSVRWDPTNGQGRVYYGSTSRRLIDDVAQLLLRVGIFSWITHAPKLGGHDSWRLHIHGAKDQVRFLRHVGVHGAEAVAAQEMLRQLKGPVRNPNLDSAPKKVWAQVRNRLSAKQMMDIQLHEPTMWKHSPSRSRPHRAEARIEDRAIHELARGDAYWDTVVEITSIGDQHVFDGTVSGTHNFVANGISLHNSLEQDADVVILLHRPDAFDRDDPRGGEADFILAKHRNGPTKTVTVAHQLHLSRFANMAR

Chain of Glyceraldehyde-3-phosphate dehydrogenase (P04406 whole entry): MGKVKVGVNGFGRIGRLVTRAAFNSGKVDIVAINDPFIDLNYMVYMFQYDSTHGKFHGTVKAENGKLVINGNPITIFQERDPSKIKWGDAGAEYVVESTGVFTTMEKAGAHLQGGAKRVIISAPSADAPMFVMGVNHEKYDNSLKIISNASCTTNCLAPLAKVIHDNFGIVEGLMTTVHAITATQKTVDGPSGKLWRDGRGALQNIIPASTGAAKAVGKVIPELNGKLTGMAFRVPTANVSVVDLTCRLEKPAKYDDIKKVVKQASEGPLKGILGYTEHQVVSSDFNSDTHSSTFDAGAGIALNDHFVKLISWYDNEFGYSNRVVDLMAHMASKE

SMILES	IC50 [1]	AC50 [2]
N#Cc1c(NC(=O)CSc2nc[nH]n2)sc2c1CCCCC2	> 100 µM (not active)	–
COc1ccc(C(N)c2nccc3cc(OC)c(OC)cc23)cc1OC (configuration not stated)	–	> 380 µM (inactive)
